Measurements as given in patent US20120142645A1, “NEUROACTIVE STEROID COMPOSITIONS AND METHODS OF USE FOR LOWERING CHOLESTEROL” (priority 2009, published 2012).

Tests used:
humans = details: cited from earlier work
[1] = test system: patients with schizophrenia or schizoaffective disorder; test: BACS cognitive battery; same 8-week adjunctive pregnenolone trial; type: in vivo, human; details: for BACS Composite Z-score / BACS Digit Sequencing raw score / BACS Symbol Coding raw score / BACS Token Motor raw score / BACS Tower of London raw score / BACS Verbal Fluency raw score / BACS Verbal Memory raw score: mean, n = 9; for BACS Composite, difference PG vs placebo in Z-score change: not statistically significant (p=0.22)
Method: Study Design and Subjects. Disclosed herein is a placebo-controlled, double-blind, parallel group, randomized trial of adjunctive pregnenolone for the treatment of cognitive and negative symptoms in patients with schizophrenia or schizoaffective disorder. […] Patients received a total of 6 study visits, which took place every two weeks. […] The trial was conducted at a single site, the Durham Veterans Affairs Medical Center in Durham, N.C. The protocol was approved by the local institutional review board and conducted under FDA Investigational New Drug (IND) #71,768. The ClinicalTrials.gov number for this study is NCT00560937.
Cognitive symptoms were assessed by the Brief Assessment of Cognition in Schizophrenia (BAGS; Keefe et al., 2004; Keefe et al., 2008), and the MATRICS Consensus Cognitive Battery (Nuechterlein & Green, 2006; Nuechterlein et al., 2008). It is believed that no clinical trial to date has reported both of these cognitive assessments within the same study. The BAGS and MATRICS batteries were administered two weeks following the screening visit (following the completion of the two-week placebo lead-in phase at Visit 2), and at two 4-week intervals thereafter (at midpoint following randomization at Visit 4 and at the final visit (Visit 6).
The BAGS cognitive battery utilizes the following assessments in the respective targeted domains (Keefe et al., 2004; Keefe et al., 2008): list learning (verbal memory), digit sequencing task (working memory), token motor task (motor speed), verbal fluency (processing speed), symbol coding (attention and processing speed), and the Tower of London test (executive functions/reasoning and problem solving). The MATRICS cognitive battery utilizes the following assessments: Trail Making Test, Part A and the symbol coding subtest of the BAGS (both assess speed of processing), the Hopkins Verbal Learning Test-Revised, immediate recall (three learning trials only) [verbal learning], the Wechsler Memory Scale, 3rd ed., spatial span subtest (working memory, nonverbal), the Letter-Number Span test (working memory, verbal), the Neuropsychological Assessment Battery, mazes subtest (reasoning and problem solving), the Brief Visuospatial Memory Test-Revised (visual learning), the Category Fluency Test (animal naming) [speed of processing], the Mayer-Salovey-Caruso Emotional Intelligence Test, managing emotions branch (social cognition), and the Continuous Performance Test, Identical Pairs version (attention/vigilance) Of note, the symbol coding subtest of the BAGS was administered only once per visit at Visits 2, 4, and 6, although it is a component of both the BAGS and MATRICS cognitive batteries, in order to avoid potentially confounding practice effects.

[2] = Week 0 to Week 8, listed as pregnenolone

In the case of `CC(=O)[C@H]1CC[C@H]2[C@@H]3CC=C4C[C@@H](O)CC[C@]4(C)[C@H]3CC[C@]12C` [PG, pregnenolone], the “Tolerability in healthy volunteers” value (humans; 15-30 mg/day, no significant side effects compared to placebo, Meieran et al., 2004) is listed as “generally well-tolerated”, the “Safety and tolerability in humans” value (humans; 25-500 mg/day, studies of the 1940s and 1950s) is listed as “safe and well-tolerated” and the “BACS Composite Z-score” value ([1]; Week 0 (baseline)) is listed as −1.54. For the same molecule, the “BACS Digit Sequencing raw score” value ([1]; Week 0 (baseline)) was 15.78, the “BACS Symbol Coding raw score” value ([1]; Week 0 (baseline)) was 36.89 and the “BACS Token Motor raw score” value ([1]; Week 0 (baseline)) was 46.44. For the same molecule, the “BACS Tower of London raw score” value ([1]; Week 0 (baseline)) was 13.22, the “BACS Verbal Fluency raw score” value ([1]; Week 0 (baseline)) was 45.78 and the “BACS Verbal Memory raw score” value ([1]; Week 0 (baseline)) was 36.78. The “BACS Composite, change in Z-score” value ([1]; Week 0 to Week 8) was 0.60, the “BACS Digit Sequencing, change in Z-score” value ([1]; Week 0 to Week 8) was 0.50 and the “BACS Digit Sequencing, difference PG vs placebo in Z-score change” value ([1]; Week 0 to Week 8) was 0.25 ± 0.29. The “BACS Symbol Coding, change in Z-score” value ([1]; Week 0 to Week 8) was 0.11, the “BACS Symbol Coding, difference PG vs placebo in Z-score change” value ([1]; Week 0 to Week 8) was −0.16 ± 0.24 and the “BACS Token Motor, change in Z-score” value ([1]; Week 0 to Week 8) was 0.40. The “BACS Token Motor, difference PG vs placebo in Z-score change” value ([1]; Week 0 to Week 8) was 0.42 ± 0.66, the “BACS Tower of London, change in Z-score” value ([1]; Week 0 to Week 8) was 0.82± and the “BACS Tower of London, difference PG vs placebo in Z-score change” value ([1]; Week 0 to Week 8) was 0.61 ± 0.80. For the same molecule, the “BACS Verbal Fluency, change in Z-score” value ([1]; Week 0 to Week 8) was −0.05, the “BACS Verbal Fluency, difference PG vs placebo in Z-score change” value ([1]; Week 0 to Week 8) was −0.06 ± 0.32 and the “BACS Verbal Memory, change in Z-score” value ([1]; Week 0 to Week 8) was 0.83. The “BACS Verbal Memory, difference PG vs placebo in Z-score change” value ([1]; Week 0 to Week 8) was 0.61 ± 0.38, the “BACS Composite, change in Z-score” value [1, 2] was 0.60±0.78 and the “BACS Digit Sequencing, difference PG vs placebo in Z-score change” value [1, 2] was 0.25. The “BACS Token Motor, difference PG vs placebo in Z-score change” value [1, 2] was 0.42, the “BACS Tower of London, difference PG vs placebo in Z-score change” value [1, 2] was 0.61 and the “BACS Verbal Memory, difference PG vs placebo in Z-score change” value [1, 2] was 0.61. The “BACS Composite, difference PG vs placebo in Z-score change” value ([1]; Week 0 to Week 8) was 0.38 ± 0.30, the “BACS Composite, difference PG vs placebo in Z-score change” value [1, 2] was “approximately 0.4” and the “BACS Composite Z-score” value ([1]; Week 4) was −1.04. For the same molecule, the “BACS Digit Sequencing raw score” value ([1]; Week 4) was 17.22, the “BACS Symbol Coding raw score” value ([1]; Week 4) was 44.78 and the “BACS Token Motor raw score” value ([1]; Week 4) was 55.56. For the same molecule, the “BACS Tower of London raw score” value ([1]; Week 4) was 15.22, the “BACS Verbal Fluency raw score” value ([1]; Week 4) was 45.11 and the “BACS Verbal Memory raw score” value ([1]; Week 4) was 39.00. The “BACS Composite Z-score” value ([1]; Week 8) was −0.93, the “BACS Digit Sequencing raw score” value ([1]; Week 8) was 18.44 and the “BACS Symbol Coding raw score” value ([1]; Week 8) was 38.67. For the same molecule, the “BACS Token Motor raw score” value ([1]; Week 8) was 52.22, the “BACS Tower of London raw score” value ([1]; Week 8) was 16.22 and the “BACS Verbal Fluency raw score” value ([1]; Week 8) was 45.22. For the same molecule, the “BACS Verbal Memory raw score” value ([1]; Week 8) was 43.78.
